Test: Rat biodistribution of Tc-99m complexes

Structure (SMILES) | Blood (2 min p.i.) [% Injected dose/organ] | Heart (2 min p.i.) [% Injected dose/organ] | Heart/Blood Counts/Gram Ratio (2 min p.i.) | Heart/Liver Counts/Gram Ratio (2 min p.i.) | Liver (2 min p.i.) [% Injected dose/organ] | Blood (60 min p.i.) [% Injected dose/organ] | Heart (60 min p.i.) [% Injected dose/organ] | Heart/Blood Counts/Gram Ratio (60 min p.i.) | Heart/Liver Counts/Gram Ratio (60 min p.i.) | Liver (60 min p.i.) [% Injected dose/organ]
CCOCCP(CCOCC)CCP(CCOCC)CCOCC [Compound 1, (EtOC2 H4)2 P--C2 H4 --P(C2 H4 OEt)2] | 2.25 | 1.66 | 10.5 | 1.52 | 14.1 | 0.28 | 1.68 | 86.4 | 14.4 | 1.62
COCCP(CCOC)CCP(CCOC)CCOC [Compound 2] | 19.85 | 0.66 | 0.44 | 1.57 | 5.90 | 0.54 | 0.17 | 5.4 | 1.17 | 2.37
CCOCCCP(CCCOCC)CCP(CCCOCC)CCCOCC [Compound 4] | 7.46 | 1.00 | 1.96 | 0.81 | 18.8 | 0.73 | 0.96 | 20.0 | 2.13 | 6.96
CCOCP(CCP(COCC)COCC)COCC [Compound 5] | 12.4 | 0.54 | 0.68 | 0.20 | 33.1 | 1.63 | 0.27 | 2.6 | 0.37 | 8.85
CCOC=CP(C=COCC)CCP(C=COCC)C=COCC [Compound 6] | 15.6 | 0.58 | 0.61 | 0.18 | 44.3 | 3.26 | 0.46 | 2.2 | 0.19 | 30.6
CCOCCOCCP(CCOCCOCC)CCP(CCOCCOCC)CCOCCOCC [Compound 8] | 11.0 | 0.54 | 0.72 | 0.41 | 19.0 | 1.69 | 0.42 | 4.0 | 0.46 | 12.0
FC(F)(F)COCCCP(CCCOCC(F)(F)F)CCP(CCCOCC(F)(F)F)CCCOCC(F)(F)F [Compound 10] | 40.5 | 0.43 | 0.17 | 0.16 | 35.2 | 7.59 | 0.14 | 0.3 | 0.04 | 48.8
COC(C)CP(CCP(CC(C)OC)CC(C)OC)CC(C)OC (stereo not shown) [Compound 11] | 9.45 | 0.31 | 1.27 | 0.57 | 20.3 | 1.93 | 0.62 | 5.70 | 0.75 | 12.0
CCC(CP(CCP(CC(CC)OC)CC(CC)OC)CC(CC)OC)OC (stereo not shown) [Compound 12] | 11.7 | 0.70 | 1.04 | 0.39 | 25.2 | 1.63 | 0.48 | 4.7 | 0.63 | 9.72
CCOC(C)CP(CCP(CC(C)OCC)CC(C)OCC)CC(C)OCC (stereo not shown) [Compound 13] | 7.17 | 1.21 | 2.54 | 0.70 | 22.0 | 1.77 | 0.96 | 7.9 | 1.25 | 10.6
COCC(C)CP(CCP(CC(C)COC)CC(C)COC)CC(C)COC (stereo not shown) [Compound 14] | 15.4 | 0.41 | 0.41 | 0.98 | 5.80 | 1.02 | 0.05 | 0.7 | 0.39 | 1.54
COC(C)CCP(CCC(C)OC)CCP(CCC(C)OC)CCC(C)OC (stereo not shown) [Compound 15] | 12.2 | 0.62 | 0.70 | 1.01 | 8.22 | 0.67 | 0.51 | 9.4 | 2.48 | 2.24
COC(C)(C)CCP(CCP(CCC(C)(C)OC)CCC(C)(C)OC)CCC(C)(C)OC [Compound 16] | 11.4 | 0.79 | 1.01 | 0.58 | 19.2 | 1.58 | 0.54 | 4.69 | 0.96 | 7.71
COCC(COC)CP(CCP(CC(COC)COC)CC(COC)COC)CC(COC)COC [Compound 17] | 5.86 | 1.14 | 2.99 | 0.92 | 17.1 | 1.03 | 0.86 | 13.9 | 1.59 | 7.88
CCOCC(COCC)CP(CCP(CC(COCC)COCC)CC(COCC)COCC)CC(COCC)COCC [Compound 18] | 24.2 | 0.58 | 0.37 | 0.24 | 35.1 | 5.78 | 0.41 | 1.0 | 0.14 | 36.0
COC(CCP(CCC(OC)OC)CCP(CCC(OC)OC)CCC(OC)OC)OC [Compound 19] | 18.8 | 0.46 | 0.37 | 1.29 | 3.27 | 0.88 | 0.03 | 0.6 | 0.76 | 0.67
CCOC(CCP(CCC(OCC)OCC)CCP(CCC(OCC)OCC)CCC(OCC)OCC)OCC [Compound 20] | 7.14 | 1.01 | 1.95 | 0.50 | 24.50 | 1.52 | 0.81 | 7.9 | 0.69 | 14.90
C1OCC(CP(CCP(CC2COCO2)CC2COCO2)CC2COCO2)O1 (stereo not shown) [Compound 21] | 18.6 | 0.37 | 0.33 | 0.58 | 9.83 | 1.14 | 0.04 | 0.5 | 0.26 | 1.95
CC1(C)OCC(CP(CCP(CC2COC(C)(C)O2)CC2COC(C)(C)O2)CC2COC(C)(C)O2)O1 (stereo not shown) [Compound 22] | 10.4 | 0.99 | 1.20 | 0.79 | 15.7 | 1.23 | 1.00 | 12.3 | 3.99 | 3.41

From US5045302A, “Ligands and cationic complexes thereof with technetium-99m” (priority 1988, dated 1991)
